Experimental data from ChEMBL document CHEMBL4393680, “Design, synthesis and biological evaluation of novel thioquinazolinone-based 2-aminobenzamide derivatives as potent histone deacetylase (HDAC) inhibitors” (Eur J Med Chem, 2019).
The source made the active and inactive calls. The rule behind the calls is not given here.

How the values were obtained:
Histone deacetylase 2 = Histone deacetylase 2 (Homo sapiens, UniProt Q92769); assay: Inhibition of human recombinant His-tagged HDAC2 ([…]) expressed in baculovirus infected insect cells using FLUOR DE LYS Green as substrate preincubated for 10 mins followed by substrate addition and measured after 30 mins by fluorescence method
Histone deacetylase 2, sequence (Q92769 whole entry): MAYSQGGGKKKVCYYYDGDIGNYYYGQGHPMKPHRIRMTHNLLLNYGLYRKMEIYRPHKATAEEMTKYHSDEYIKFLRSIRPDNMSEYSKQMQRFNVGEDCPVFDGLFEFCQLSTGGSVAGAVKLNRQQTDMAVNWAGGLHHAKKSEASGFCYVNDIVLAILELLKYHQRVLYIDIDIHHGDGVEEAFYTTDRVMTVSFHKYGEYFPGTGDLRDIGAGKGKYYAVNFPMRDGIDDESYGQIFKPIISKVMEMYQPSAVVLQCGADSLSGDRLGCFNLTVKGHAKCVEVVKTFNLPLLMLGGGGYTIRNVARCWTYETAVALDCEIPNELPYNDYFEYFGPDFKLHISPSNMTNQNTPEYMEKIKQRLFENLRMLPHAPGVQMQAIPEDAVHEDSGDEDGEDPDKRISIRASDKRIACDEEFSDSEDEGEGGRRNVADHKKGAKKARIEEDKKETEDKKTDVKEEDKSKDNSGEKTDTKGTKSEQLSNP

A-375 = assay: Antiproliferative activity against human A375 cells assessed as reduction in cell growth at 8 uM incubated for 72 hrs by CCK-8 assay relative to control; format: functional; settings: A-375, 72 h
[1] = target: T1, Protein deacetylase HDAC6 (Homo sapiens, UniProt Q9UBN7); assay: Inhibition of human recombinant His-tagged HDAC6 expressed in baculovirus infected insect cells using FLUOR DE LYS SIRT1 as substrate preincubated for 10 mins followed by substrate addition and measured after 30 mins by fluorescence method
T1 sequence (Q9UBN7 whole entry): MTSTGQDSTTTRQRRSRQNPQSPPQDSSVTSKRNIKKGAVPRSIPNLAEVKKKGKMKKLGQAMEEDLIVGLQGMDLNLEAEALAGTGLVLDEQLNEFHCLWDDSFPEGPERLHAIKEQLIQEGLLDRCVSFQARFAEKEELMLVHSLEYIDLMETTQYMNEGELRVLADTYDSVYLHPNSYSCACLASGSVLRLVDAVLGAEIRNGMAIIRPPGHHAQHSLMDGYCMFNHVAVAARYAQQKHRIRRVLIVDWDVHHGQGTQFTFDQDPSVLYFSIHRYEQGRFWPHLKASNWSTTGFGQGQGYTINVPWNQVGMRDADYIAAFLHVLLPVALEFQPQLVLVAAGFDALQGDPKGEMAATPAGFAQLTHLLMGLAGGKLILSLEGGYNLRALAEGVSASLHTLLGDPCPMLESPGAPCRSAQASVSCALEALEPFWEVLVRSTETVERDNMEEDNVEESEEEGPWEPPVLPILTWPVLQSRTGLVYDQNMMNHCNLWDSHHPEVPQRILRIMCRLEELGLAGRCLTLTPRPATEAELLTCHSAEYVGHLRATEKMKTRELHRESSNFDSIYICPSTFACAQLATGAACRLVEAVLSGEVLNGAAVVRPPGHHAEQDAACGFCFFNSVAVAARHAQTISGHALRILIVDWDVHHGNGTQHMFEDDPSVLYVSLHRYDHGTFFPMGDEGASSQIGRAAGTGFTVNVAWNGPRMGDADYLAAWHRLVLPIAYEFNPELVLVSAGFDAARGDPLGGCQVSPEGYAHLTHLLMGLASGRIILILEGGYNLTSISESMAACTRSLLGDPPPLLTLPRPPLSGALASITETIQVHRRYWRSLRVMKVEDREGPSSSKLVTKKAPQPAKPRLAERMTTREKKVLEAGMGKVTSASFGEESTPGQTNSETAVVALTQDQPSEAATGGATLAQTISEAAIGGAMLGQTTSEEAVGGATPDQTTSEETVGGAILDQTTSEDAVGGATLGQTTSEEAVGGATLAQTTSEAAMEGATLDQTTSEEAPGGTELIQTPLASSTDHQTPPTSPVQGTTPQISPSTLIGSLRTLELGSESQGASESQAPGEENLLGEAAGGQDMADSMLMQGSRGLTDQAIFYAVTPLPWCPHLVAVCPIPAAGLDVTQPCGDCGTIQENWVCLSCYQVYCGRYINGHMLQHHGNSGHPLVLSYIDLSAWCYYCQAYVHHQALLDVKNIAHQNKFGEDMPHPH

SMMC-7721 [2] = assay: Antiproliferative activity against human SMMC7721 cells assessed as reduction in cell growth at 2 uM incubated for 72 hrs by CCK-8 assay relative to control; format: functional; settings: SMMC-7721, 72 h
[3] = Toxicity in BALB/C mouse xenografted with human A549 cells assessed as reduction in body weight at 25 mg/kg, ip bid for 21 days measured at 3 days interval during compound dosing; format: organism-based; settings: in vivo
SMMC-7721 [4] = assay: Cell cycle arrest in human SMMC7721 cells assessed as accumulation at S phase at 1 uM incubated for 48 hrs by propidium iodide staining based flow cytometry (Rvb=6.83%); format: functional
A549 [5] = assay: Antitumor activity against human A549 cells xenografted in BALB/C mouse assessed as tumor growth inhibition at 25 mg/kg, ip bid for 21 days measured at 3 days interval during compound dosing relative to control; format: functional; settings: read-out: TGI
A549 [6] = assay: Antitumor activity against human A549 cells xenografted in BALB/C mouse assessed as reduction in tumor size at 25 mg/kg, ip bid for 21 days measured at 3 days interval during compound dosing by visual analysis; format: functional, organism-based
SMMC-7721 [7] = assay: Cell cycle arrest in human SMMC7721 cells assessed as accumulation at G2/M phase incubated for 48 hrs by propidium iodide staining-based flow cytometry; format: functional
HeLa = assay: Antiproliferative activity against human HeLa cells assessed as reduction in cell growth incubated for 72 hrs by CCK-8 assay; format: functional, cell-based
SMMC-7721 [8] = assay: Antiproliferative activity against human SMMC7721 cells assessed as reduction in cell growth at 8 uM incubated for 72 hrs by CCK-8 assay relative to control; format: functional; settings: SMMC-7721, 72 h
SMMC-7721 [9] = assay: Inhibition of colony formation in human SMMC7721 cells incubated for 10 days by crystal violet staining based assay; format: functional, cell-based
SMMC-7721 [10] = assay: Cell cycle arrest in human SMMC7721 cells assessed as accumulation at S phase at 4 uM incubated for 48 hrs by propidium iodide staining based flow cytometry (Rvb=6.83%); format: functional
SMMC-7721 [11] = assay: Cell cycle arrest in human SMMC7721 cells assessed as accumulation at G2/M phase at 0.25 uM incubated for 48 hrs by propidium iodide staining based flow cytometry (Rvb=16.17%); format: functional

IC50 (Histone deacetylase 2)	IC50 [1]	IC50 (HeLa)	SMILES	inhibition at 8 µM (A-375)	inhibition at 2 µM (SMMC-7721 [2])	Activity [3]	Activity (SMMC-7721 [4])	inhibition in vivo at 25 mg/kg (A549 [5])	Activity (A549 [6])	Activity (SMMC-7721 [7])	inhibition at 8 µM (SMMC-7721 [8])	inhibition (SMMC-7721 [9])	Activity (SMMC-7721 [10])	Activity (SMMC-7721 [11])
0.16 µM	> 40 µM	1.49 µM	COc1ccc2c(=O)n(C)c(SCc3ccc(C(=O)Nc4ccccc4N)cc3)nc2c1	89.4%	68.8%	Non-Toxic	19.34%	62.5%	Active	Dose-dependent effect	79.3%	Dose-dependent effect	22.52%	11.67%
0.18 µM	> 40 µM	3.41 µM	CCn1c(SCc2ccc(/C=C/C(=O)Nc3ccccc3N)cc2)nc2cc(OC)ccc2c1=O	89.5%	56.8%		16.13%				79.7%	Dose-dependent effect	28.7%	17.67%
0.53 µM	> 40 µM	3.97 µM	Cn1c(SCc2ccc(C(=O)Nc3ccccc3N)cc2)nc2cc(Br)ccc2c1=O	72.9%	35.6%		18.28%				70.6%	Dose-dependent effect	24.16%	18.88%
0.61 µM	> 40 µM	1.32 µM	COc1ccc2c(=O)n(-c3ccccc3Cl)c(SCc3ccc(C(=O)Nc4ccccc4N)cc3)nc2c1	78.7%	50.4%		28.44%				84.1%	Dose-dependent effect	45.18%	31.29%
